From patent US10344330B2, “Glatiramer acetate response biomarker mRNA potency assay” (Mylan Inc., priority 2013, dated 2019)

B1: MBP: myelin basic protein, a negative control (protein, UniProt P02686 1-304, looked up)
Myelin basic protein: MGNHAGKRELNAEKASTNSETNRGESEKKRNLGELSRTTSEDNEVFGEADANQNNGTSSQDTAVTDSKRTADPKNAWQDAHPADPGSRPHLIRLFSRDAPGREDNTFKDRPSESDELQTIQEDSAATSESLDVMASQKRPSQRHGSKYLATASTMDHARHGFLPRHRDTGILDSIGRFFGGDRGAPKRGSGKDSHHPARTAHYGSLPQKSHGRTQDENPVVHFFKNIVTPRTPPPSQGKGRGLSLSRFSWGAEGQRPGFGYGGRASDYKSAHKGFKGVDAQGTLSKIFKLGGRDSRSGSPMARR

Experiments:
[1] = system: IL-4 secreted by LN cells; test: IL-4 secretion by GA-stimulated LN cells, MSD 9-plex ELISA (Example II); format: cell-based, mouse; settings: for IL-4 secretion response ratio (treated cell medium to control DCCM1 medium): 21 hr
Method: Animals at 8 weeks of age were immunized by injection into four footpads using a 1 mL syringe with a 27-G, 1⁄2-inch needle. […] Ten days post-immunization, immunized animals were sacrificed via cervical dislocation. […] The LN cells were isolated by pressing the LN with the plunger end of a sterile syringe. […] Trypan blue exclusion method was used to determine the cell density of viable cells in the suspension. […] Cat. […] LN cells were plated into a 24-well tissue culture plate for drug stimulation. […] Cell debris was removed by centrifugation at ca. 200×g for 10 minutes at 4° C. Cytokines secreted by treated cells were determined on the day of collection by ELISA using mouse TH 1/TH 2 9-Plex Tissue Culture Kit (Meso Scale Discovery; Cat No. […]-2, Lot #: K0032839) which detects Th1 cytokines (IFN-γ, IL-2, IL-12, IL-1β, TNF-α, CXCL1) and Th2 cytokines (IL-4, IL-5 and IL-10). For IFN-γ, culture media also were assayed at 45 hours using mouse IFN-γ Tissue Culture Kit (Meso Scale Discovery; Cat No. […] For the positive control, 0.5 mL of LN cells (5×10^6 cells/well) were treated with 0.5 mL of ConA (5 μg/mL). For the negative control, 0.5 mL of LN cells (5×10^6 cells/well) were treated with 0.5 mL of MBP (20 μg/mL). The LN cells with mock stimulation (enriched DCCM1 medium) were used to monitor the background level of a cytokine. For the cytokine assays, calibration standards or samples were incubated in the MULTI-SPOT or the SINGLE-SPOT plate and each cytokine bound to its corresponding capture antibody. All test samples were run in duplicate. The amount of each cytokine on its distinct spot was quantified using a cytokine-specific detection antibody labeled with MSD SULFO-TAGTM reagent. Electrochemiluminescent signals from immobilized SULFO-TAGTM-labeled complexes on each spot from each well were captured by the MSD SECTOR Imager 6000, which produces a signal directly proportional to the amount of captured cytokine in a test sample. The levels of cytokines in test samples were derived by interpolation from calibration curves with calibration standards of known concentrations using reagents provided with the MSD kits. Kits were used according to the manufacturer's protocols. […] Data are expressed as a response ratio of cytokine concentration in treated cell medium to control DCCM1 medium.

[2] = system: IL-5 mRNA in LN cells; test: IL-5 mRNA by real-time PCR in LN cells of GA-immunized CD-1, BALB/cByJ, SJL/J mice (Example III); format: cell-based, mouse; settings: 6 hours
Method: On Day 0, mice were immunized with 250 μg GA (GMA, Mylan Pharmaceuticals, Inc.) and CFA. The GA solution (20 mg/mL) was diluted with Dulbecco's Phosphate-Buffered Saline to 5 mg/mL. The dosing formulation consisted of equal volumes of the diluted GA solution (5 mg/mL) and CFA solution, mixed until well-emulsified. Animals were weighed and allocated to groups. Animals were dosed by injection into four footpads. The injection volume per animal was 0.1 mL (about 10 μL into each front footpad, and 40 μL into each hind footpad).
Immunized animals were euthanized by cervical dislocation on Day 10 post-immunization. Lymph node cells were isolated from animals and treated with Myelin Basic Protein (MBP, a negative control), Concanavalin A (ConA, a positive control) or GA as shown in Table 16. Lymph nodes in the axillary and popliteal regions were removed aseptically in a purifier clean bench. […] The LN were then washed 3 times with −5 mL of RPMI medium, and isolated by pressing the LN with a syringe plunger. […] The cell suspension was centrifuged at about 200×g for 10 minutes at about 4° C. and re-suspended in ice cold enriched DCCM-1 medium. Cells were seeded in 96-well tissue culture plates.
LN cells isolated from GA-immunized animals were stimulated with GA (GMA, Mylan Pharmaceuticals, Inc.) at concentrations as indicated in Tables 16 and 17. A positive control was prepared by treating LN cells with 2.5 μg/mL concavalin A (ConA, a non-specific T cell stimulant). Myelin basic protein (MBP, 10 μg/mL) and enriched DCCM-1 medium served as negative controls. The cells from all groups each were stimulated with the same GA lot. Each reaction was set up in triplicate.
After incubation at about 37° C. in a humidified CO2 incubator for 6 hours, the cells were lysed for total RNA isolation. Total RNA was isolated from treated LN cells using SV 96 Total RNA Isolation System according to the manufacturer's protocol (Promega, Cat. #Z3500). Cells were washed once with Phosphate Buffered Saline (PBS) and lysed in RNA lysis buffer. The lysate was transferred to wells of the SV 96 binding plate. Samples were washed with RNA wash solution and treated with DNase. Total RNA was eluted with nuclease-free water from the binding plate.
After the reverse transcriptase reaction was completed, cDNA samples were used directly for real-time PCR to measure the response biomarker mRNA levels produced by the stimulated cells. […] All probes for target genes contained FAM dye, and probes for the internal control contained VIC®/MGB dye. Samples will be prepared and run in 96-well plates using a Real-Time PCR system (7500, Life Technologies). This system allows direct detection of PCR-product formation by measuring the increase in fluorescent emission continuously during the PCR reaction. A relative quantitation method was used to analyze changes in mouse IL-2, IL-4, IL-5, IL-10, IL-13, IFN-γ and TNF-α expression in GA-treated samples relative to the untreated control (enriched DCCM-1 treated) samples. The Real-Time PCR program was:
The levels of mouse cytokine amplicons (IL-2, IL-4, IL-5, IL-10, IL-13, mIFN-γ and TNF-α) were normalized to internal probe levels (GAPDH) from the same samples. The following equations were used to calculate the relative increase in response to GA stimulation compared to the control sample: ΔCT=CT_target−CT_reference ΔΔCT=−ΔCT_Treated−CT_VC

[3] = BALB/cByJ, immunized GA Intraplantar
[4] = BALB/cByJ, immunized GA Lower Limb
[5] = BALB/cByJ, immunized Mannitol Intraplantar
[6] = C57BL10J, immunized GA Intraplantar
[7] = C57BL10J, immunized GA Lower Limb
[8] = C57BL10J, immunized Mannitol Intraplantar
[9] = CD-1, immunized GA Intraplantar
[10] = CD-1, immunized Mannitol Intraplantar
[11] = Group 1C: CD-1, GA-immunized, stimulation 10 μg/mL
[12] = Group 2C: BALB/cByJ, GA-immunized, stimulation 10 μg/mL
[13] = Group 3C: SJL/J, GA-immunized, stimulation 10 μg/mL

Row | Molecule | IL-4 secretion response ratio (treated cell medium to control DCCM1 medium) [1, 3] | IL-4 secretion response ratio (treated cell medium to control DCCM1 medium) [1, 4] | IL-4 secretion response ratio (treated cell medium to control DCCM1 medium) [1, 5] | IL-4 secretion response ratio (treated cell medium to control DCCM1 medium) [1, 6] | IL-4 secretion response ratio (treated cell medium to control DCCM1 medium) [1, 7] | IL-4 secretion response ratio (treated cell medium to control DCCM1 medium) [1, 8] | IL-4 secretion response ratio (treated cell medium to control DCCM1 medium) [1, 9] | IL-4 secretion response ratio (treated cell medium to control DCCM1 medium) ([1]; CD-1, immunized GA Lower Limb) | IL-4 secretion response ratio (treated cell medium to control DCCM1 medium) [1, 10] | IL-5 mRNA Expression [2, 11] [fold change vs control] | IL-5 mRNA Expression [2, 12] [fold change vs control] | IL-5 mRNA Expression [2, 13] [fold change vs control] | other results
1 | Concanavalin A [ConA, reference compound] | 46.47 | 75.33 | 24.71 | 3.26 | 4.85 | 3.14 | 9.86 | 4.91 | 3.36 |  |  |  | IL-5 mRNA Expression ([2]; Group 1C: CD-1, GA-immunized, stimulation 2.5 μg/mL): 19.1 fold change vs control; IL-5 mRNA Expression ([2]; Group 2C: BALB/cByJ, GA-immunized, stimulation 2.5 μg/mL): 9.1 fold change vs control; IL-5 mRNA Expression ([2]; Group 3C: SJL/J, GA-immunized, stimulation 2.5 μg/mL): 9.7 fold change vs control
2 | L-glutamic acid polymer with L-alanine, L-lysine and L-tyrosine, acetate (salt) [GA] |  |  |  |  |  |  |  |  |  | 5.4 | 3.5 | 4.3 | IL-4 secretion, dose response to GA (in words) ([1]; BALB/cByJ cells): dose-dependent manner; IL-5 mRNA Expression ([2]; Group 1C: CD-1, GA-immunized, stimulation 0.3 μg/mL): 1.0 fold change vs control; IL-5 mRNA Expression ([2]; Group 1C: CD-1, GA-immunized, stimulation 1 μg/mL): 1.8 fold change vs control; IL-5 mRNA Expression ([2]; Group 1C: CD-1, GA-immunized, stimulation 3 μg/mL): 3.2 fold change vs control; IL-5 mRNA Expression ([2]; Group 2C: BALB/cByJ, GA-immunized, stimulation 0.3 μg/mL): 0.5 fold change vs control; IL-5 mRNA Expression ([2]; Group 2C: BALB/cByJ, GA-immunized, stimulation 1 μg/mL): 1.6 fold change vs control; IL-5 mRNA Expression ([2]; Group 2C: BALB/cByJ, GA-immunized, stimulation 3 μg/mL): 2.3 fold change vs control; IL-5 mRNA Expression ([2]; Group 3C: SJL/J, GA-immunized, stimulation 0.3 μg/mL): 0.6 fold change vs control; IL-5 mRNA Expression ([2]; Group 3C: SJL/J, GA-immunized, stimulation 1 μg/mL): 2.1 fold change vs control; IL-5 mRNA Expression ([2]; Group 3C: SJL/J, GA-immunized, stimulation 3 μg/mL): 5.1 fold change vs control
3 | B1 | 0.99 | 1.05 | 1.50 | 1.09 | 1.14 | 1.03 | 0.99 | 0.94 | 1.21 | 0.8 | 0.2 | 0.8 | 
